Earlier results, collected in patent US20240165107A1 (Cipla Limited, priority 2021, published 2024).
Where two headings read alike, the source gives them in different places.

Key:
[1] = target: T1, alA- adrenergic receptors (Homo sapiens, UniProt P35348)
T1 sequence (P35348 1-466): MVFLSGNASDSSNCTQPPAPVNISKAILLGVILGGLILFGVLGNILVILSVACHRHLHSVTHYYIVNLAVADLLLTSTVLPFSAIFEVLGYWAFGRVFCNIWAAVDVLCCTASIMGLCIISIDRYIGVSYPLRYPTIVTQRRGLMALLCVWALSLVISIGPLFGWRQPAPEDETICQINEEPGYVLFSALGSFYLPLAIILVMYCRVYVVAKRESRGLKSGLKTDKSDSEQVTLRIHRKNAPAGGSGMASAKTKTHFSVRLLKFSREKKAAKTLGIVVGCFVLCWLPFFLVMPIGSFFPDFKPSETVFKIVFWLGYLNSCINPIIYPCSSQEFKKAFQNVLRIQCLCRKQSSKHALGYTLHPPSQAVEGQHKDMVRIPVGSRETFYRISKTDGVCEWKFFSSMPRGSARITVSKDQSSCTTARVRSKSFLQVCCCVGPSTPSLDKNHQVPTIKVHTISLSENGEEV

5-HT2B receptors = 5-HT2B receptors (Homo sapiens, UniProt P41595); details: antagonist
Chain of 5-HT2B receptors (P41595 whole entry): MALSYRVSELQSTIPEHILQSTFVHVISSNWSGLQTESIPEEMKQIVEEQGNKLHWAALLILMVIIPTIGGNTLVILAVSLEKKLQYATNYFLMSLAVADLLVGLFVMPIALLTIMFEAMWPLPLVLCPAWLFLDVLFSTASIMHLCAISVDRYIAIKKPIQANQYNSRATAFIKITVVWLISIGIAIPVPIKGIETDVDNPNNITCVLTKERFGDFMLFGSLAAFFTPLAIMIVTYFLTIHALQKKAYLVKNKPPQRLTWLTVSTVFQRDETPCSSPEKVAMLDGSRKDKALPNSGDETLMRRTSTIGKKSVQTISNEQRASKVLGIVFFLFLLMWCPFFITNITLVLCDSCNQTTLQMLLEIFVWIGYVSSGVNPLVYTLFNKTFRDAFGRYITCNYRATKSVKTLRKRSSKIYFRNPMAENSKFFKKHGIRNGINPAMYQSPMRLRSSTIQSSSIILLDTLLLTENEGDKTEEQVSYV

[2] = rats; immediate release cariprazine capsules
5-HT2A receptors = 5-HT2A receptors (Homo sapiens, UniProt P28223); details: antagonist
Chain of 5-HT2A receptors (P28223 whole entry): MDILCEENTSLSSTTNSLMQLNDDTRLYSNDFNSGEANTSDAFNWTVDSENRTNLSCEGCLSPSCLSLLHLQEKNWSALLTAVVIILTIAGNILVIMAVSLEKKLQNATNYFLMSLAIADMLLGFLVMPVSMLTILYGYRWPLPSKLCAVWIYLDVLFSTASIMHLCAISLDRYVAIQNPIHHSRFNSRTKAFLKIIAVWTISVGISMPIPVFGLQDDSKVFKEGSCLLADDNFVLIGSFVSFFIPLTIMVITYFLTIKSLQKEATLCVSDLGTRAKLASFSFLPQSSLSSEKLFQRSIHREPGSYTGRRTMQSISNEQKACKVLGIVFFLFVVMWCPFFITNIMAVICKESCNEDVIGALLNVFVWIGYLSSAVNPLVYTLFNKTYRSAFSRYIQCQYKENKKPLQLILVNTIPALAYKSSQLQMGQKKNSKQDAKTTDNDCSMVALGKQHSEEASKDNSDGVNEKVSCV

[3] = test system: cholinergic muscarinic receptors
[4] = dogs; immediate release cariprazine capsules
[5] = target: T2, serotonin 5-HT2C receptors (Homo sapiens, UniProt P28335)
T2 sequence (P28335 33-458): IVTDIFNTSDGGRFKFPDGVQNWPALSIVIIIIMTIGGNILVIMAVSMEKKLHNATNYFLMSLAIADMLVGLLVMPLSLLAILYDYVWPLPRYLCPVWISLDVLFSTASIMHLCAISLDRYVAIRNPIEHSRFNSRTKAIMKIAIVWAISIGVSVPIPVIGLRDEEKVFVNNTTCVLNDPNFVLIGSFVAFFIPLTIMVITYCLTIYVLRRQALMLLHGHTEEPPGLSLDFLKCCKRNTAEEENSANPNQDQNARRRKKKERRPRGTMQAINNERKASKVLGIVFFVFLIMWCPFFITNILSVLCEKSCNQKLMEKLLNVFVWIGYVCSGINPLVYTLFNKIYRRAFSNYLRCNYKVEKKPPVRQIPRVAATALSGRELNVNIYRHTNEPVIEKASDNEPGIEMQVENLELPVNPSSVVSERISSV

binding affinity [1]: lower binding affinity | binding affinity (5-HT2B receptors): high | oral absolute bioavailability [2]: 52-63% | binding affinity (5-HT2A receptors): moderate | affinity [3]: no appreciable affinity | oral absolute bioavailability [4]: 64-80% | binding affinity [5]: lower binding affinity
SMILES: CN(C)C(=O)N[C@H]1CC[C@H](CCN2CCN(c3cccc(Cl)c3Cl)CC2)CC1 [Cariprazine, trans-N-{4-[2-[4-(2,3-dichlorophenyl)piperazine-1-yl]ethyl]cyclohexyl}-N′,N′-dimethylurea]
